The results in this text go back to PubChem BioAssay (NCI).

The structures appear in SMILES notation. Where “and” joins values, the source holds several entries; their conditions need not be identical. Equal entries are not always repeated.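 Cultured in 96-well plates, cells were exposed to test compound for 48 hours across five concentrations. GI50 is the concentration that inhibits growth by half. TGI: concentration producing complete growth inhibition.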

Test systems include A549 NSCLC; BT-549 breast; EKVX NSCLC; HOP-92 NSCLC; MDA-MB-231 breast; NCI-H522 lung; NCI/ADR-RES ovarian; OVCAR-3 ovarian; OVCAR-8 ovarian; PC-3 prostate; SF-295 CNS; SK-MEL-28 melanoma; SN12C renal.
Experiment in all cases: inhibition of tumour cell growth, NCI panel, 48 h

Regarding `Nc1ncnc2c1ccn2CC=C(CO)CO`, the TGI in the experiment on A549 NSCLC, in the experiment with BT-549 breast, in the experiment on EKVX NSCLC, with HOP-92 NSCLC, in the experiment on MDA-MB-231 breast and in the experiment with NCI-H522 lung was more than 100 µM in each case. The TGI in the experiment on NCI/ADR-RES ovarian, in the experiment with OVCAR-3 ovarian, in the experiment on OVCAR-8 ovarian, in the experiment on PC-3 prostate, in the experiment with SF-295 CNS and with SK-MEL-28 melanoma was more than 100 µM in each case. For the same compound, the TGI with SN12C renal was more than 100 µM.
Consider `c1ccc(-c2sc(-c3ccccc3)c3c2C2CCC3C2)cc1`, for which the TGI was more than 100 µM in the experiment on A549 NSCLC; more than 100 µM with BT-549 breast; more than 100 µM in the experiment on EKVX NSCLC; 47.9 µM with HOP-92 NSCLC; more than 100 µM in the experiment on MDA-MB-231 breast; 60.5 µM in the experiment on NCI-H522 lung. Moreover, the TGI in the experiment on NCI/ADR-RES ovarian was more than 100 µM; with OVCAR-3 ovarian, more than 100 µM; in the experiment with OVCAR-8 ovarian it was more than 100 µM; in the experiment on PC-3 prostate, 72.6 µM; with SF-295 CNS, more than 100 µM; with SK-MEL-28 melanoma, more than 100 µM. This compound registered a TGI with SN12C renal of more than 100 µM.
`CC(=O)O[C@@H]1[C@@H](C)[C@]2(CC(c3ccoc3)OC2O)C2CCC3O[C@]3(C)[C@]2(C)[C@@H]1OC(C)=O` (stereo partly specified): the TGI in the experiment with A549 NSCLC is more than 100 µM; in the experiment on BT-549 breast, 63.1 µM; with EKVX NSCLC it was more than 100 µM; in the experiment on HOP-92 NSCLC, more than 100 µM; with MDA-MB-231 breast, more than 100 µM; with NCI-H522 lung, 69.7 µM. In addition, the TGI is more than 100 µM with NCI/ADR-RES ovarian; more than 100 µM with OVCAR-3 ovarian; more than 100 µM in the experiment on OVCAR-8 ovarian; more than 100 µM in the experiment on PC-3 prostate; more than 100 µM with SF-295 CNS; 81.4 µM in the experiment on SK-MEL-28 melanoma. Moreover, in the experiment on SN12C renal, the TGI was more than 100 µM.
For `O=CNNC(=O)CSc1nc2ccc(I)cc2c(=O)n1Cc1ccccc1`, the TGI in the experiment with A549 NSCLC is more than 100 µM; in the experiment with BT-549 breast it was 99 µM; with EKVX NSCLC it was 69.7 µM; in the experiment on HOP-92 NSCLC, 63.3 µM; in the experiment with MDA-MB-231 breast, 81.8 µM; in the experiment with NCI-H522 lung, 57.4 µM. For the same compound, the TGI with NCI/ADR-RES ovarian is more than 100 µM; with OVCAR-3 ovarian, 50.2 µM; in the experiment with OVCAR-8 ovarian it was more than 100 µM; in the experiment on PC-3 prostate it was more than 100 µM; with SF-295 CNS, more than 100 µM; in the experiment on SK-MEL-28 melanoma it was more than 100 µM. In the experiment with SN12C renal, this compound had a TGI of 79.8 µM.
Regarding `COc1cc(CC(C)N[C@@H](C)c2ccccc2)cc(OC)c1` (stereo partly specified), the GI50 in the experiment on A549 NSCLC was 13 µM and > 100 µM; in the experiment with EKVX NSCLC, 12.2 µM and > 100 µM; with MDA-MB-231 breast, 12.8 µM and > 100 µM; in the experiment on NCI/ADR-RES ovarian, more than 100 µM; in the experiment on OVCAR-8 ovarian it was 11.8 µM and > 100 µM; in the experiment with SN12C renal it was 11.8 µM and > 100 µM. Also, the TGI in the experiment on A549 NSCLC is 27.1 µM and > 100 µM; with BT-549 breast, 20.4 µM and > 100 µM; with EKVX NSCLC, 26.4 µM and > 100 µM; in the experiment on HOP-92 NSCLC, 10.8 µM and > 100 µM; in the experiment on MDA-MB-231 breast, 27.2 µM and > 100 µM; in the experiment with NCI-H522 lung, more than 100 µM. Further, the TGI in the experiment on NCI/ADR-RES ovarian was more than 100 µM; with OVCAR-3 ovarian, 21.1 µM and > 100 µM; in the experiment on OVCAR-8 ovarian, 25.7 µM and > 100 µM; with PC-3 prostate, 14.2 µM and > 100 µM; with SF-295 CNS, 21.5 µM and > 100 µM; in the experiment with SK-MEL-28 melanoma, 11.9 µM and > 100 µM. The TGI in the experiment on SN12C renal was 24.2 µM and > 100 µM.
Consider `CC(=O)c1c2c(cc3c1CC1(C3)Cc3ccc4c(c3C1=O)CCC4)CCC2` (stereo unspecified), for which the TGI was more than 100 µM in the experiment with A549 NSCLC; more than 100 µM in the experiment on BT-549 breast; 96 µM in the experiment on EKVX NSCLC; 83.7 µM with HOP-92 NSCLC; more than 100 µM in the experiment with MDA-MB-231 breast; 9.51 µM with NCI-H522 lung. The TGI in the experiment on NCI/ADR-RES ovarian is 17.7 µM; in the experiment with OVCAR-3 ovarian, more than 100 µM; in the experiment with OVCAR-8 ovarian it was more than 100 µM; with PC-3 prostate it was more than 100 µM; in the experiment with SF-295 CNS it was more than 100 µM; with SK-MEL-28 melanoma, more than 100 µM. The compound further showed a TGI with SN12C renal of more than 100 µM.
Take `Cc1cc(CN(Cc2ccccc2)Cc2nc3ccccc3[nH]2)c(O)c(CN(Cc2nc3ccccc3[nH]2)Cc2nc3ccccc3[nH]2)c1`: the TGI with A549 NSCLC was more than 95.1 µM; with BT-549 breast, 18.3 µM; in the experiment with EKVX NSCLC, 99.1 µM; in the experiment on HOP-92 NSCLC, 14.7 µM; in the experiment on MDA-MB-231 breast, more than 71.4 µM; with NCI-H522 lung, more than 69.5 µM. Moreover, the TGI in the experiment on NCI/ADR-RES ovarian is 35.9 µM; with OVCAR-3 ovarian, 63.5 µM; in the experiment with OVCAR-8 ovarian, more than 100 µM; in the experiment with PC-3 prostate it was 60.6 µM; in the experiment with SF-295 CNS it was more than 61.6 µM; in the experiment on SK-MEL-28 melanoma, more than 100 µM. The same compound had a TGI in the experiment with SN12C renal of more than 100 µM.
With `COc1cc(CCC(=O)O)c2cc3ccccc3cc2c1O`, the TGI in the experiment on A549 NSCLC came to 52.6 µM; with BT-549 breast it was 30.9 µM; in the experiment with EKVX NSCLC it was 53.1 µM; with HOP-92 NSCLC, 88.3 µM; with MDA-MB-231 breast, 41.4 µM; with NCI-H522 lung it was 45.1 µM. The TGI in the experiment with NCI/ADR-RES ovarian came to 80.7 µM; in the experiment with OVCAR-3 ovarian, 51.7 µM; in the experiment with OVCAR-8 ovarian it was 30.6 µM; in the experiment on PC-3 prostate, 47.6 µM; with SF-295 CNS, 37.6 µM; with SK-MEL-28 melanoma it was 48.4 µM. Besides, the TGI with SN12C renal was 31.7 µM.
On to `O=C1CC(NC2CC(=O)c3c(Br)sc(Br)c32)c2c(Br)sc(Br)c21` (stereo unspecified), for which the TGI with A549 NSCLC is 38.9 µM; in the experiment on BT-549 breast, 38.9 µM; with EKVX NSCLC, 22.7 µM; in the experiment on HOP-92 NSCLC, 21.5 µM; in the experiment on MDA-MB-231 breast it was 10.3 µM; with NCI-H522 lung it was 3.69 µM. Besides, the TGI with NCI/ADR-RES ovarian is more than 86.8 µM; in the experiment with OVCAR-3 ovarian it was more than 100 µM; with OVCAR-8 ovarian it was 10.3 µM; in the experiment on PC-3 prostate, 7.52 µM; in the experiment with SF-295 CNS it was 27.8 µM; in the experiment with SK-MEL-28 melanoma it was more than 55.4 µM. Also, the TGI with SN12C renal was 3.42 µM.
Consider `O=S(=O)(c1ccccc1)[C@@H]1[C@H]2C=C[C@](CS)(O2)[C@H]1S(=O)(=O)c1ccccc1`, for which the TGI in the experiment on A549 NSCLC is more than 100 µM; with BT-549 breast, more than 100 µM; in the experiment with EKVX NSCLC, more than 100 µM; in the experiment with HOP-92 NSCLC, more than 100 µM; with MDA-MB-231 breast it was more than 100 µM; with NCI-H522 lung it was 31.7 µM. The TGI in the experiment with NCI/ADR-RES ovarian is more than 100 µM; with OVCAR-3 ovarian it was 63.5 µM; in the experiment on OVCAR-8 ovarian, more than 100 µM; in the experiment on PC-3 prostate, more than 100 µM; with SF-295 CNS, more than 100 µM; in the experiment on SK-MEL-28 melanoma, more than 100 µM. Further, the TGI in the experiment with SN12C renal is more than 100 µM.
